Key:
[1] = molecular target: T1, Sodium-dependent serotonin transporter (Homo sapiens, UniProt P31645); test: Inhibitory activity of compound bound to streptavidin-conjugated quantum dots against human SERT transfected in HEK293 cells; type: cell-based
[2] = molecular target: T1, Sodium-dependent serotonin transporter; test: Inhibitory activity against human SERT transfected in HEK293 cells; type: cell-based

T1 sequence (P31645 whole entry): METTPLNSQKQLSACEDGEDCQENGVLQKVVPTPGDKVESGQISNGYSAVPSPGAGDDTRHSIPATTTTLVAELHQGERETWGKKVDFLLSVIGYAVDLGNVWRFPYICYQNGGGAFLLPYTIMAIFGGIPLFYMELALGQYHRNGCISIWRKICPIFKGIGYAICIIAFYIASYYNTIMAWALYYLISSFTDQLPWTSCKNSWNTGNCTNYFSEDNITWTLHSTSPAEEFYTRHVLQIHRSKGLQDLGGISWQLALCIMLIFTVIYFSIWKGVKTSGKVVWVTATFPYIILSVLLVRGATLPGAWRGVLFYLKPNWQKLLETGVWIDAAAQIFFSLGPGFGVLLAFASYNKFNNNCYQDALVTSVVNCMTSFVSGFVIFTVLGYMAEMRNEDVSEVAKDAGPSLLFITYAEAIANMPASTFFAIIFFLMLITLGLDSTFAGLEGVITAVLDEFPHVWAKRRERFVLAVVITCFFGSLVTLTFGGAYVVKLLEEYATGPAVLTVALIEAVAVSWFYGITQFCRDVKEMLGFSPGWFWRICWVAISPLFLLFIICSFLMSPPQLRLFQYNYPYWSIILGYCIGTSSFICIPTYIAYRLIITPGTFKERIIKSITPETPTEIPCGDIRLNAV

SMILES | IC50 [1] | IC50 [2]
O=C(CCCCC1SCC2NC(=O)NC21)NCCN1CC=C(c2c[nH]c3ccccc23)CC1 (centres undefined) | 0.03 µM | 0.002 µM
NCCc1c[nH]c2ccc(OCCOCCOCCS)cc12 | 99 µM | 115 µM

— ChEMBL document CHEMBL1141947, “Inhibitors of the serotonin transporter protein (SERT): the design and synthesis of biotinylated derivatives of 3-(1,2,3,6-tetrahydro-pyridin-4-yl)-1H-indoles. High-affinity serotonergic ligands for conjugation with quantum dots” (Bioorg Med Chem Lett, 2005)
